For data set [1], the system named is orthotopic xenograft tumours of MDA-MB-231 breast cancer cell line. The data set can be described thus: In vivo therapeutic efficacy, orthotopic MDA-MB-231 breast cancer xenograft. Further details: species or system NSG mice.
Experimental: An orthotopic xenotransplantation of the triple-negative human MDA-MB-231 breast cancer cell line was performed in immunocompromised female NSG mice. The mice (5 per group) were divided into 3 groups and treated according to the protocol approved by the Institutional Animal Care and Use Committee (IACUC) of the University of Granada and the Regional Government of Andalusia according to the European Directive on the protection of animals used for scientific purposes (2010/63/EU) and Spanish law (Royal Decree 53/2013). […]
Data set [2] is described as follows: In vivo toxicity assays (survival, external signs, weight, motor activity). Further details: species or system NSG mice. To be noted: for external side effects observed: intravenous every 3 days. How it is done: All the in vivo experiments were performed in NOD scid gamma mice (NSG, NOD.Cg-Prkdcscid II2rgtmlWjl/SzJ). The animal wellbeing and experimental methods were carried out according to institutional guidelines (Research Ethics Committee of University of Granada, Spain) and international guidelines (European Community Council Directive 86/609). All the animals (n=5 per group) were kept in a micro-ventilated cage system with a 12-h light/darkness cycle, and handled in a laminar flow cabinet to maintain the specific pathogen-free conditions. To establish orthotopic xenograft tumours, female mice six to eight weeks of age were used. The mice were anaesthetised by means of the inhalation of isoflurane and tumours were generated in the right breast by means of subcutaneous injections of 5×10^5 cells/mouse mixed with Corning® Matrigel® Matrix and with 26-gauge needles. The intravenous administration of PBS (control), free DOX, and NPs in the tail vein of the mice was performed every three days for a period of 43 days, as was the fluorescence evaluation by means of IVIS® (Perkin Elmer). Tumour growth was evaluated twice a week with a digital calibrator and tumour volume was calculated by means of the formula V=(length) 2×width×π/6. The weight of the mice was also measured every three days. The endpoint of the experiment was day 44. […] During that month, the fluorescence of the mice was analyzed in IVIS® once a week. Lastly, the mice were sacrificed by cervical dislocation and the tumours were extirpated, photographed, and analyzed by means of IVIS®.
In another assay, a series of experiments were carried out to control the in vivo toxicity of the treatment. […] The percentage of survival (FIG. 12) during the treatment period was 100% both for mice treated with NPs and for controls. However, treatment with DOX caused a high impact on survival. After 30 days of treatment, there was a drastic decrease in the percentage of survival (30%). This effect could be attributed to the inherent systemic toxicity of this anti-tumour drug and to the serious side effects of this conventional chemotherapy treatment.
Furthermore, in order to observe the toxic effect of the treatment at the central nervous system level, a standardised protocol for testing movement was carried out on day 30 in a cage with a camera prepared for this purpose. This camera analyzes the distance the mouse travels in 24 hours.

In the case of `COc1cccc2c1C(=O)c1c(O)c3c(c(O)c1C2=O)C[C@@](O)(C(=O)CO)C[C@@H]3O[C@H]1C[C@H](N)[C@H](O)[C@H](C)O1` [doxorubicin], the “histological analysis of xenograft tumour tissues (cellularity)” value in data set [1] (haematoxylin/eosin and DAPI staining after treatment, vs control group) is on record as “cellularity decreased significantly”. Also, in data set [1] (intravenous every 3 days for 43 days, NSG mice, n=5 per group, vs PBS), the “therapeutic effect on tumour growth / tumour volume” value was “significant inhibition of tumour growth”. Further, in data set [1] (intravenous every 3 days, NSG mice), the “time after which inhibition of tumour growth was significant” value was 3 weeks. For the same compound, the “external side effects observed” value in data set [2] (NSG mice, listed as DOX) is “high cutaneous toxicity caused in the tail”; in data set [2] (NSG mice, listed as free DOX), “weight loss, goose bumps, behaviour disorders, and damaged tail”. This compound had a percentage of survival in data set [2] (after 30 days of treatment, NSG mice) of 30%. In addition, the “weight of mice during treatment” value in data set [2] (compared with untreated control mice or mice treated with theranostic NPs) is “significant weight reduction”. In addition, the “motor activity (distance travelled in 24 hours)” value in data set [2] (day 30, cage with camera) is on record as “significant decrease in mouse mobility”.

These data come from patent publication US20230248847A1, “MULTIFUNCTIONAL NANOPARTICLES FOR THERAGNOSIS” (priority 2018, published 2023).
